Data on seven molecules can be found in patent US11078519B2, “Bioluminescent assays utilising secreted luciferases” (GENE STREAM PTY LTD., priority 2006, dated 2021).

The subject of assay [1] is non-secreted Gaussia luciferase. In words: Kinetic luminescence assay of non-secreted Gaussia luciferase in HeLa cell lysate with reducing agent in assay buffer. Format: biochemical. To be noted: for decay in luminescent signal over time compared with absence of reducing agent: all concentrations tested: DTT 4-50 mM, β-mercaptoethanol 10-100 mM, TCEP 500 uM or 5 mM, FIGS. 1A, 1B. The procedure:
HeLa cells stably expressing non-secreted and destabilized Gaussia luciferase were plated onto 96-well plates and incubated overnight. The non-secreted luciferase is a modified Gaussia luciferase in which the 14 amino acid N-terminal signal peptide has been deleted. The destabilised luciferase is an enzyme containing a destabilising element such that it has a shortened half-life and is expressed at lower steady-state level than in the absence of the destabilising element.
Following the overnight incubation, medium was removed and the cells lysed in 20 ul lysis buffer comprising 25 mM Tris pH 8.1, 150 mM NaBr, 1 mM EDTA, 63.4 uM sodium oxalate, 0.1% NP40 substitute, 5% glycerol (GSv3). Luciferase activity was measured in a kinetic assay following injection of 60 ul of an assay buffer comprising 25 mM Tris pH 8.1; 1 mM EDTA, 2 mM Ascorbate and 26 uM Cz (STD), or the same assay buffer but also containing a reducing agent. Various concentrations of three reducing agents were used: DTT (4 mM, 10 mM, 20 mM or 50 mM); β-mercaptoethanol (10 mM, 20 mM, 50 mM, or 100 mM); and TCEP (500 uM or 5 mM). […] The effect was strongest at higher concentrations of a given reducing agent. […] The inventors have determined that this higher concentration produced beneficial effects in terms of bioluminescence generated by Gaussia luciferase. […]

Assay [2] has as its system non-secreted Metridia luciferase. In words: Kinetic luminescence assay of non-secreted Metridia luciferase in HeLa cell lysate. Format: biochemical. To be noted: up to 120 minutes. The source says:
(§1) HeLa cells were transiently transfected with expression plasmids encoding either Gaussia or Metridia luciferases in either their native secreted form or a modified non-secreted form. Secreted Metridia luciferase was obtained from Clontech and non-secreted Metridia luciferase was created in an analogous way to non-secreted Gaussia luciferase. The coding region was obtained by PCR using primers that delete the first 16 amino acids after ATG (the secretion signal) and the stop codon. The PCR product was ligated into a pRR23.1 plasmid (GeneStream, AU) to create a non-secreted but destabilized Metridia luciferase.
One day after transfection conditioned medium was removed for the secreted luciferases and the non-secreted luciferases were lysed as described in Example 1. Aliquots (20 ul) of conditioned medium or lysate were assayed for luciferase activity in kinetic assays following manual injection of assay buffer comprising the indicated concentrations of DTT in 25 mM Tris pH 7.75; 1 mM EDTA; 2 mM Ascorbic acid and 26 uM coelenterazine.
Experiments were performed as described in Example 5 for the non-secreted Gaussia and Metridia luciferases, except that the reducing agents used were: dithioerythritol (DTE) (FIGS. 6A and 6D); sodium sulfite (FIG. 6B); cysteamine (FIGS. 6C and 6E); TCEP (FIG. 6F); and β-mercaptoethanol (FIG. 6G).

Assay [3] relates to wild-type secreted Gaussia luciferase. In words: Kinetic luminescence assay of secreted Gaussia luciferase in conditioned medium. Format: biochemical. The procedure: Similar experiments were performed as described in Example 1 with the exception that the effect of DTT on the time course of luminescence was also investigated for the wild-type secreted Gaussia luciferase. This was achieved by transiently transfecting HeLa cells with a reporter plasmid encoding the wild-type Gaussia luciferase protein and harvesting the conditioned medium 24 hrs later. The assay buffer (with either 50 mM DTT or no DTT) was injected into wells containing 20 ul of the conditioned medium. Results were expressed as the % signal remaining compared to time zero (see FIG. 3).
as §1
One day after transfection conditioned medium was removed for the secreted luciferases and the non-secreted luciferases were lysed as described in Example 1. […]

In assay [4] the target is T1, intracellular Renilla luciferase (Renilla reniformis, UniProt P27652).
T1 construct: expressed in transfected cells; host or cells: HeLa, transient; cell lysate
T1 sequence (P27652 1-311): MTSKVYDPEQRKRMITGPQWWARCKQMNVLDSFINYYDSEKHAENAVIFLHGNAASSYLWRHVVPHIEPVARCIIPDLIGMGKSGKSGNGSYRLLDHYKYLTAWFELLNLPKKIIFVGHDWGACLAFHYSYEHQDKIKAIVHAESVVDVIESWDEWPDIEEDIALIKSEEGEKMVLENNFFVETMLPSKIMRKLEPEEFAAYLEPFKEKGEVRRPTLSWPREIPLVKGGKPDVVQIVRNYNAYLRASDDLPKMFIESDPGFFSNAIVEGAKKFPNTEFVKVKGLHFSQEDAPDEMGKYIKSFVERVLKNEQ
As to the kind of experiment: Kinetic luminescence assay of Renilla luciferase in HeLa cell lysate. In kind it is biochemical. To be noted: 50 mM DTT in assay buffer; FIG. 4. The procedure: Similar experiment to those described in Example 1 were performed, with the exception that the HeLa cells transiently expressed the intracellular Renilla luciferase. A kinetic assay was performed after injection of assay buffer (with 50 mM DTT or no DTT) into wells containing 20 ul of lysate.

Assay [5] relates to secreted Metridia luciferase. As to the kind of experiment: Kinetic luminescence assay of secreted Metridia luciferase in conditioned medium. Format: biochemical. The conditions noted are these: varying DTT in assay buffer; up to 120 minutes; FIG. 5D.
From the text: as §1, with “Metridia luciferase. One day after transfection conditioned medium was removed for the secreted luciferases and the non-secreted luciferases were lysed as described in Example 1. Aliquots (20 ul) of conditioned medium or lysate were assayed for luciferase activity in kinetic assays following manual injection of assay buffer comprising the indicated concentrations of DTT in 25 mM Tris pH 7.75; 1 mM EDTA; 2 mM Ascorbic acid and 26 uM coelenterazine.” for “Metridia luciferase.”

Assay [6] concerns non-secreted and destabilized Gaussia luciferase. As to the kind of experiment: Dual-luciferase assay (Gaussia then firefly) in HeLa cell lysate. Format: biochemical. The conditions noted are these: Gaussia assay buffer with 50 mM DTT; FIG. 8. The procedure: HeLa cells stably expressing both a non-secreted and destabilized Gaussia luciferase and a destabilized firefly luciferase were plated onto 96-well plates and incubated overnight. Medium was removed and the cells lysed in 20 ul of the lysis buffer described in Example 1. Light emission was measured for 1 sec in a luminometer at the following times: immediately before addition of assay buffer (LB=background signal in absence of substrate); immediately after addition of Gaussia assay buffer (Ga) comprising 25 mM Tris pH 8.1; 1 mM EDTA, 2 mM Ascorbate, 23.6 uM Cz and 50 mM DTT; 15 mins after addition of Ga assay buffer (15 mins); and subsequently at 1 sec after addition of 60 ul of a firefly assay buffer (FF) comprising 25 mM Tris pH 7.35, 6 mM MgSO4, 36 mM DTT, 0.11 mM EDTA, 0.58 mM ATP, 0.3 mM CoA, 0.52 mM Luciferin, 1 mg/ml BSA. The results shown in FIG. 8 illustrate a strong Gaussia luciferase bioluminescent signal that can be measured in a flash reaction but which decays to background levels within approximately 15 mins without intervention or the need to add quenching reagents. Subsequent addition of a firefly reagent allows measurement of the firefly signal, thus completing a dual-luciferase assay.

Assay [7] relates to secreted Gaussia luciferase. In words: Secreted Gaussia luciferase signal in cell lysate, lysis buffer with DTT. In kind it is biochemical. To be noted: 50 mM DTT in lysis buffer; 2 hour time-point, without doxycycline; FIG. 11B. The procedure:
To test this hypothesis, HeLa cells were co-transfected with plasmids TRE-Rn and CMV-Ga (wild type, secreted), either alone or in combination. The latter provides constitutive expression of secreted Gaussia luciferase, whilst the former provides a doxycycline-repressible expression of intracellular Renilla luciferase. The cells were incubated overnight, the medium was removed and the cells rinsed once before addition of a fresh aliquot of medium either with or without 2 ug/ml doxycyline. At 2, 6 and 24 hrs later, samples of conditioned medium were taken. The cells were rinsed in fresh medium before being lysed using lysis buffer comprising 25 mM Tris pH 8.1, 150 mM NaBr, 1 mM EDTA, 63.4 uM sodium oxalate, 0.1% NP40 substitute, 5% glycerol; either with or without 50 mM DTT. 20 ul aliquots of conditioned medium and cell lysate were then assayed for luciferase activity following addition of 60 ul of assay buffer comprising 25 mM Tris pH 7.75; 1 mM EDTA; 2 mM Ascorbic acid and 26 uM coelenterazine.

Assay [8] is described as follows: Background luminescent signal in lysate of non-transfected HeLa cells. The conditions noted are these: DTT in assay buffer. How it is done:
(§2) Non-transfected HeLa cells and HeLa cells expressing non-secreted Gaussia luciferase were subjected to luciferase assays as follows. Cells were plated in equal aliquots onto a 96-well plate and incubated overnight. Medium was removed and cells lysed in 20 ul of the lysis buffer described in Example 1. Forty minutes later, light emission was measured using a Wallac Victor 3 luminometer (Perkin Elmer) immediately before and after injection of 60 ul of assay buffer comprised 25 mM Tris pH 8.1, 23.6 uM coelenterazine, 1 mM EDTA, 2 mM ascorbate plus the indicated concentration of DTT (see FIG. 8).

In assay [9] the test system is non-secreted Gaussia luciferase. In words: Flash intensity of non-secreted Gaussia luciferase in HeLa cell lysate. Format: biochemical. To be noted: 50 mM DTT in assay buffer; FIG. 12C. The procedure: as §2
Assay [10] has as its system destabilised, non-secreted Gaussia luciferase. The conditions noted are these: 5 mM glutathione (3:2 reduced:oxidized); fresh buffer; FIG. 15. How it is done: HeLa cells expressing a destabilised, non-secreted Gaussia luciferase were plated in equal aliquots onto 96-well plates and incubated overnight. The same lysis buffer was used for all samples. Luciferase activity was measured using fresh assay buffer containing the total amounts of glutathione (3:2 ratio of reduced:oxidized) indicated in FIG. 15. The assay buffers were then stored at room temperature for 7 hrs or at 4° C. for 22 hrs and used again to measure replicate samples.

The test system is the same in assay [11]. The conditions noted are these: fresh assay buffer with glutathione; FIG. 14.
Description: HeLa cells expressing a destabilised, non-secreted Gaussia luciferase were plated in equal aliquots onto 96-well plates and incubated overnight. The same lysis buffer was used for all samples. […] The assay buffers were then stored at room temperature for 4 hrs and used again to measure replicate samples.
Setting [12] is: varying concentrations of reducing agent, up to 50 minutes, FIGS. 6D-6G.
[13] abbreviates: varying concentrations of reducing agent, FIGS. 6A-6C.

As to `O[C@H](CS)[C@@H](O)CS` [DTE, dithioerythritol], the “light emission over time” value in assay [1] (setting [12]) and in [2] (setting [13]) was “rapid decline in light emission” throughout.
For `O[C@H](CS)[C@H](O)CS` [DTT, dithiothreitol], the “light emission over time (% signal remaining compared to time zero)” value in assay [1] (50 mM DTT in assay buffer, modified non-secreted form, FIG. 3) was “very rapid decline in light emission”; in [3] (50 mM DTT in assay buffer, native secreted form, conditioned medium, FIG. 3) it was “very rapid decline in light emission”. The “time for signal to drop to approximately background levels (~100 RLU)” value in assay [1] (DTT 50 mM to 500 mM, all concentrations, FIG. 2B) is ≤ 10 min. Moreover, the “rate of decay in luminescent signal versus concentration” value in assay [1] (DTT 50 mM to 500 mM, FIG. 2A) is listed as “directly related to the concentration of DTT”. For the same molecule, the “light emission after addition during glow phase (% of light units at time zero)” value in assay [1] (DTT added 40 minutes after initiation of reaction, FIG. 7) is on record as “rapid decline in light emission”. Also, the “light emission during the first few seconds after injection of the reducing agent” value in assay [1] (DTT added during glow phase, FIG. 7) is reported as “lack of any significant decay in light emission”. Moreover, the “decay in luminescent signal over time compared with absence of reducing agent” value (shortened to “decay in luminescent signal … of reducing agent”) in [1] is recorded as “more rapid decay in luminescent signal”. Moreover, the initial signal intensity entry in assay [1] (up to 50 mM DTT) is on record as “does not cause any reduction in initial signal intensity”. Moreover, the “light emission over time” value in [1] (varying DTT in assay buffer, up to 120 minutes, FIG. 5A) is given as “very rapid decline in light emission”; in assay [3] (varying DTT in assay buffer, up to 120 minutes, FIG. 5B), “very rapid decline in light emission”; in [2] (varying DTT in assay buffer, FIG. 5C), “very rapid decline in light emission”; in assay [5] it was “very rapid decline in light emission”. Also, the “kinetics of light emission” value in assay [4] is “prolongs the light emission”. For the same molecule, in assay [6], the “time for Gaussia luciferase signal to decay to background levels” value is ≤ 15 min. In addition, in [7], the “signal in the lysate of cells expressing only Gaussia luciferase” value is recorded as “no signal was detected”. Besides, the “reduction in the background signal generated by the assay buffer” value in [8] (after subtraction of the pre-read, FIG. 12B) is given as “more than 80%”. Besides, the “reduction in the overall background signal” value in assay [8] (raw RLU after injection, FIG. 12A) is given as “more than 50%”. Also, in [9], the “true luciferase signal in flash reactions” value was “does not reduce the true luciferase signal”.
As for `O=C(O)CCP(CCC(=O)O)CCC(=O)O` [TCEP, tris(2-carboxyethyl)phosphine], in assay [1], the “decay in luminescent signal … of reducing agent” value is “more rapid decay in luminescent signal”. Besides, the “light emission over time” value in assay [1] (setting [12]) is “rapid decline in light emission”.
`NCCS` [cysteamine]: the “light emission over time” value in assay [1] (setting [12]) and in [2] (setting [13]) was “rapid decline in light emission” each time.
On to `N[C@@H](CCC(=O)N[C@@H](CS)C(=O)NCC(=O)O)C(=O)O` [glutathione], for which the “initial activity of assay buffer” value in [10] was “initial activity was reduced”. Also, the “baseline activity of the fresh buffers” value in assay [11] is “reduces the assay buffer activity”.
Take `O=S([O-])[O-].[Na+].[Na+]` [sodium sulfite]: the “light emission over time” value in assay [2] (setting [13]) was “rapid decline in light emission”.
On to `OCCS` [β-mercaptoethanol], for which the “decay in luminescent signal … of reducing agent” value in assay [1] is on record as “more rapid decay in luminescent signal”. In addition, the “light emission over time” value in assay [1] (setting [12]) is reported as “rapid decline in light emission”.
